# Data taken from the NIST ThermoML archive (doi:10.1021/je0502896).
# Several values for one entry are separate records, joined by “and”; a condition that tells them apart may be missing. Equal values may be shown once. ± gives the expanded uncertainty stated by the source.
# Settings: 313.15 K; Liquid
row,Structure (SMILES),vapor or sublimation pressure
1,c1ccccc1 [benzene],24.39 ± 0.18 kPa and 24.38 ± 0.18 kPa and 24.4 ± 0.18 kPa
2,CCC(C)O (stereo not drawn) [butan-2-ol],6.062 ± 0.069 kPa [middle of 4 runs]
3,CC(C)OC(C)C [diisopropyl ether],37.1 ± 0.27 kPa and 37.14 ± 0.27 kPa and 37.12 ± 0.27 kPa
